Where no end group is shown, it is not given here.
System: blood pressure of anesthetized Sprague-Dawley IGS male rats
Assay: Hypotensive activity in anesthetized rats, invasive blood pressure measurement after intravenous administration
Type: in vivo, rat
Conditions: for Hypotensive activity (dose/rat) 10 nmol / Hypotensive activity (dose/rat) 30 nmol / Hypotensive activity (dose/rat) 100 nmol: anesthetized rats, intravenous; for Hypotensive activity (dose/rat) 10 nmol: 10 nmol/rat; for Hypotensive activity (dose/rat) 30 nmol: 30 nmol/rat; for Hypotensive activity (dose/rat) 100 nmol: 100 nmol/rat; for dose dependence of hypotensive activity: anesthetized rats, 10, 30, 100 nmol/rat
Description: 50 mg/kg pentobarbital sodium was intraperitoneally administered to 8- to 10-week-old Sprague-Dawley IGS male rats (Charles River Laboratories Japan, Inc.) for anesthesia. Thereafter, a tracheal cannula (PE 250), a femoral vein cannula (PE50), and a femoral artery cannula (PESO) were inserted into each rat. The femoral artery cannula was connected with a pressure transducer (PE23XL; manufactured by Nihon Kohden Corporation), and an apparatus formed by incorporating a blood pressure measurement unit (AP-641G; manufactured by Nihon Kohden Corporation) and an instantaneous heart rate measurement unit (AT-601G; manufactured by Nihon Kohden Corporation) into a multi-purpose preamplifier (RP-6004; manufactured by Nihon Kohden Corporation) was used to record the blood pressure and heart rate of each rat. The blood pressure was calibrated using a mercury manometer included in a stand-type electromanometer (MP-25S; manufactured by Nihon Kohden Corporation). The recording paper was adjusted, such that 10 mm or 20 mm on the recording paper corresponded to 100 mmHg.
Each peptide was dissolved in a concentration of 1 mM or 10 mM in a 0.1% acetic acid solution to prepare a peptide solution. Thereafter, depending on dose, it was diluted with a normal saline containing 0.1% bovine serum albumin (Fr.V). In the case of the dose of 10 nmol/rat, a 1 mM peptide solution was 10 times diluted, and 100 μl of the diluted solution was administered. In the case of the dose of 30 nmol/rat, a 1 mM peptide solution was 10 times diluted, and 300 μL, of the diluted solution was administered. In the case of the dose of 100 nmol/rat, a 10 mM peptide solution was 10 times diluted, and 100 μL of the diluted solution was administered. Each peptide was intravenously administered via the femoral vein cannula, and the systolic blood pressure, diastolic blood pressure, and heart rate were then measured.
Various HC021 derivative peptides were synthesized in accordance with Example 1, and such peptide was then administered to each rat at a dose of 10 nmol/rat, 30 nmol/rat, or 100 mol/rat by the method described in Example 2. Thereafter, the hypotensive activity of each derivative peptide was measured. […] The strength of such activity was determined using a median of activity in repeated experiments. In addition, in order to make a comparison among the activities of various derivative peptides, the strength of hypotensive activity was defined as follows.
Strength of Hypotensive Activity
Extremely strong activity (+++): A decrease in systolic blood pressure is 30 mmHg or more, and the time required for recovery is 5 minutes or more.
Strong activity (++): A decrease in systolic blood pressure is 20 mmHg or more and less than 30 mmHg, or the time required for recovery is less than 5 minutes.
Activity observed (+): A decrease in systolic blood pressure is less than 20 mmHg.
Activity not observed (−)
Various HC021 peptide sequence-substituted products were synthesized in accordance with Example 1, and their hypotensive activity was then measured according to the method of Example 3.

| Substance | Hypotensive activity (dose/rat) 10 nmol (Table 2) | Hypotensive activity (dose/rat) 30 nmol (Table 2) | Hypotensive activity (dose/rat) 100 nmol (Table 2) | further results |
| --- | --- | --- | --- | --- |
| LFFRRLQAYFKGRGLDLGTFPNPF [Compound 27] | +++ (Extremely strong activity (+++): A decrease in systolic blood pressure is 30 mmHg or more, and the time required for recovery is 5 minutes or more.) |  |  |  |
| LFFRRLQAYFKGRGLDLGTFPNPF-amide (LFFRRLQAYFKGRGLDLGTFPNPF-NH2) [Compound 28] | +++ (Extremely strong activity (+++): A decrease in systolic blood pressure is 30 mmHg or more, and the time required for recovery is 5 minutes or more.) |  |  |  |
| LFFRRLQAYFKGRGLDLGTFPNPFPTNENPR [Compound 29] | +++ (Extremely strong activity (+++): A decrease in systolic blood pressure is 30 mmHg or more, and the time required for recovery is 5 minutes or more.) |  |  |  |
| LFFRRLQAYFKGRGLDLGTFPNPFPTNENPR-amide [Compound 30] | +++ (Extremely strong activity (+++): A decrease in systolic blood pressure is 30 mmHg or more, and the time required for recovery is 5 minutes or more.) |  |  | Hypotensive activity (dose/rat) 10 nmol (Table 3): +++ (Extremely strong activity (+++): A decrease in systolic blood pressure is 30 mmHg or more, and the time required for recovery is 5 minutes or more.) |
| LFFRSLQAYFK-amide (LFFRSLQAYFK-NH2) [Compound 43] |  |  |  | Hypotensive activity (dose/rat) 10 nmol (Table 3): −; Hypotensive activity (dose/rat) 30 nmol (Table 3): ++ (Strong activity (++): A decrease in systolic blood pressure is 20 mmHg or more and less than 30 mmHg, or the time required for recovery is less than 5 minutes.) |
| NGATVRNEDKWKPLNNPRNRDLFFRRLQAYFK-amide [Compound 6] | − | + (Activity observed (+): A decrease in systolic blood pressure is less than 20 mmHg.) |  |  |
| NRDLFFRRLQAYAK-amide (NRDLFFRRLQAYAK-NH2) [Compound 42] |  |  |  | Hypotensive activity (dose/rat) 10 nmol (Table 3): −; Hypotensive activity (dose/rat) 30 nmol (Table 3): −; Hypotensive activity (dose/rat) 100 nmol (Table 3): ++ (Strong activity (++): A decrease in systolic blood pressure is 20 mmHg or more and less than 30 mmHg, or the time required for recovery is less than 5 minutes.) |
| NRDLFFRRLQAYFK (not fully specified (C-terminus)) [Compound 15] | − | − | + (Activity observed (+): A decrease in systolic blood pressure is less than 20 mmHg.) |  |
| NRDLFFRRLQAYFKG [Compound 11] | − | − | + (Activity observed (+): A decrease in systolic blood pressure is less than 20 mmHg.) |  |
| NRDLFFRRLQAYFKG-amide (NRDLFFRRLQAYFKG-NH2) [Compound 12] | − | ++ (Strong activity (++): A decrease in systolic blood pressure is 20 mmHg or more and less than 30 mmHg, or the time required for recovery is less than 5 minutes.) | +++ (Extremely strong activity (+++): A decrease in systolic blood pressure is 30 mmHg or more, and the time required for recovery is 5 minutes or more.) | dose dependence of hypotensive activity: enhanced their hypotensive activity in a dose-dependent manner |
| NRDLFFRRLQAYFKGR [Compound 13] |  | − | ++ (Strong activity (++): A decrease in systolic blood pressure is 20 mmHg or more and less than 30 mmHg, or the time required for recovery is less than 5 minutes.) |  |
| NRDLFFRRLQAYFKGR-amide (NRDLFFRRLQAYFKGR-NH2) [Compound 14] | + (Activity observed (+): A decrease in systolic blood pressure is less than 20 mmHg.) | ++ (Strong activity (++): A decrease in systolic blood pressure is 20 mmHg or more and less than 30 mmHg, or the time required for recovery is less than 5 minutes.) |  | dose dependence of hypotensive activity: enhanced their hypotensive activity in a dose-dependent manner |
| NRELFFRRLQAYFK-amide (NRELFFRRLQAYFK-NH2) [Compound 41] |  |  |  | Hypotensive activity (dose/rat) 10 nmol (Table 3): −; Hypotensive activity (dose/rat) 30 nmol (Table 3): ++ (Strong activity (++): A decrease in systolic blood pressure is 20 mmHg or more and less than 30 mmHg, or the time required for recovery is less than 5 minutes.) |
| RDLFFRRLQAYFK-amide (RDLFFRRLQAYFK-NH2) [Compound 16] | − | ++ (Strong activity (++): A decrease in systolic blood pressure is 20 mmHg or more and less than 30 mmHg, or the time required for recovery is less than 5 minutes.) | +++ (Extremely strong activity (+++): A decrease in systolic blood pressure is 30 mmHg or more, and the time required for recovery is 5 minutes or more.) | dose dependence of hypotensive activity: enhanced their hypotensive activity in a dose-dependent manner |
| RLQAYFK-amide (RLQAYFK-NH2) [Compound 23] |  | − | − |  |
| RRLQAYFK-amide (RRLQAYFK-NH2) [Compound 22] |  | − | − |  |
| VQQRKESKKPPAKLQPRNRDLFFRRLQAYFK-amide (VQQRKESKKPPAKLQPRNRDLFFRRLQAYFK-NH2) [Compound 40] |  |  |  | Hypotensive activity (dose/rat) 30 nmol (Table 3): ++ (Strong activity (++): A decrease in systolic blood pressure is 20 mmHg or more and less than 30 mmHg, or the time required for recovery is less than 5 minutes.) |
| acetyl-ATVRNEDKWKPLNNPRNRDLFFRRLQAYFK-amide [Compound 31] |  | +++ (Extremely strong activity (+++): A decrease in systolic blood pressure is 30 mmHg or more, and the time required for recovery is 5 minutes or more.) |  |  |
| acetyl-NRDLFFRRLQAYFK-amide (Ac-NRDLFFRRLQAYFK-NH2) [Compound 32] |  | ++ (Strong activity (++): A decrease in systolic blood pressure is 20 mmHg or more and less than 30 mmHg, or the time required for recovery is less than 5 minutes.) |  |  |
| pyr-EDKWKPLNNPRNRDLFFRRLQAYFK-amide (not fully specified; N-terminal pyroglutamate, C-terminal amide) [Compound 33] | ++ (Strong activity (++): A decrease in systolic blood pressure is 20 mmHg or more and less than 30 mmHg, or the time required for recovery is less than 5 minutes.) |  |  |  |
